In publication PMC4160570, “Effects of proarrhythmic drugs on relaxation time and beating pattern in rat engineered heart tissue” (Basic Research in Cardiology, 2014):
Read-outs that look alike come from different tables or passages of the source.

Assays:
mouse = conditions: in vivo; cited from earlier work
[1] = test system: rat engineered heart tissue (EHT); assay: Video-optical analysis of contractile parameters of spontaneously beating rat EHTs (50 nM epinephrine); conditions: for significant T2 prolongation (p<0.05 and at least 15 % vs baseline): 1-, 10-, 100-fold FTPC, 50 nM epinephrine, n = 4–8; for irregular beating as the primary effect: sinusoidal fluctuation of twitch amplitudes, time dependent
[2] = test system: rat engineered heart tissue (EHT); conditions: cited from earlier work
[3] = test system: rat engineered heart tissue (EHT)
rat = conditions: cited from earlier work
[4] = test system: rat engineered heart tissue (EHT); assay: Ca^2+ transients (Fura-2) and contraction of EHTs under electrical stimulation and perfusion; format: cell-based
Procedure: Intracellular Ca^2+-transients were analyzed in parallel with force under electrical stimulation and continuous perfusion using a novel setup as described previously. The setup consisted of an inverted microscope, a temperature- and O2/CO2-controlled chamber for the 24-well EHT plate, a flow rate-controlled perfusion system, platinum–iridium wire electrodes for field stimulation, a fluorescence light source (IonOptix Hyperswitch), a photomultiplier, video cameras and software (both IonOptix) for the evaluation of contractile activity (edge detection mode). Experiments were done at 4 ml flow/min (per well) and 2–4 Hz stimulation in modified Tyrode’s solution.
For Fura loading, EHTs were incubated in Tyrode’s solution containing 10 µM Fura2-AM (Invitrogen F1221) and Cremophor EL ([…]; Sigma C5135) for 2 h at 37 °C. The ratio of light emission (510 nm) at excitation with 340 and 380 nm light (F340/380 ratio) was used as an index of cytosolic Ca^2+-concentration.
To differentiate between effects on beating rate and relaxation and to analyse intracellular Ca^2+-transients in addition to force, two drugs were additionally analysed under pacing at defined beating rate using a novel modified IonOptix (IonOptix Corporation, Milton, MA, USA) setup. This custom-made setup allowed continuous electrical stimulation and perfusion of EHTs during the measurement. The setup consisted of an inverted microscope, a temperature- and O2/CO2-controlled chamber for the 24-well EHT plate mounted on the microscope stage, a flow rate-controlled perfusion system, platinum wire electrodes for field stimulation and a video camera and software (both IonOptix) for the evaluation of contractile activity (edge detection mode). Experiments were done under a flow rate of approximately 4 ml/min (per well) and stimulation at 2-4 Hz and 7 V. Measurements were done in a modified Tyrode’s solution (mM: NaCl 120, KCl 5.4, MgCl2 1.0, CaCl2 1.8, NaH2PO4 0.4, NaHCO3 22.6, glucose 5.0, Na2EDTA 0.05, ascorbic acid 0.3). EHTs were equilibrated for 20 min in Tyrode’s solution (baseline) and then exposed to the respective drug for up to 20 min. Reversibility of drug effects was determined after 20 min perfusion in drug-free Tyrode’s solution.
For measurement of intracellular Ca^2+-transients, EHTs were incubated in Tyrode’s solution containing 10 µM Fura2-AM (Invitrogen F1221) and the non-ionic detergent Cremophor EL (0.0075%; Sigma C5135) for 2 h at 37 °C. After washing the EHTs for 10 min in Tyrode’s solution, measurements under perfusion and stimulation of Ca^2+-transients were performed in the same way as for force of contraction, but signals were evaluated by a 10x objective (instead of 1.25x for force) and a photomultiplier.The ratio of the emission intensity of light (510 nm) from EHTs alternatively excited at 340 and 380 nm (F340/380 ratio) was used as an index of cytosolic Ca^2+-concentration. Data were evaluated either with the IonOptix software or a customized software or manually when peaks were severely deformed.

SMILES: CC(C)NCC(O)c1ccc(NS(C)(=O)=O)cc1 (racemic) [D,L-sotalol]
- LD50 (mouse): 790 mg∙kg^-1 (mouse, i. p.)
- T2-effective concentrations [1]: 100 fold FTPC
- published IKs IC50 relative to threshold for group 1 or 2 effects [1]: at or below the threshold for group 1 or 2 effects
- significant T2 prolongation (p<0.05 and at least 15 % vs baseline) [1]: Significant T2 prolongations

SMILES: CCS(=O)(=O)N(C)[C@H]1c2cc(C#N)ccc2OC(C)(C)[C@@H]1O (racemic) [chromanol 293b]
- effect on relaxation time T2 in a previous EHT study [2]: caused concentration-dependent prolongations of relaxation time T2
- prolongation of relaxation (T2) ([2]; seen previously in EHTs): +710%

SMILES: COc1ccc(CCN2CCC(Nc3nc4ccccc4n3Cc3ccc(F)cc3)CC2)cc1 [Astemizole]
- LD50 (mouse): 35 mg∙kg^-1 (mouse, i. v.)
- effect on force (group 3) ([1]; 1–100× FTPC): decrease in force

SMILES: c1ccc(C2(c3ccccc3)CC2C2=NCCN2)cc1 (stereo not drawn) [Cibenzoline]
- published IKs IC50 relative to threshold for group 1 or 2 effects [3]: at or below the threshold for group 1 or 2 effects
- significant T2 prolongation (p<0.05 and at least 15 % vs baseline) ([3]; Wistar, rat): Significant T2 prolongations

SMILES: COc1cc(N)c(Cl)cc1C(=O)NC1CCN(CCCOc2ccc(F)cc2)CC1OC (stereo not drawn) [Cisapride]
- LD50 (rat; in vivo): 4.166 mg∙kg^-1 (rat, p. o.)
- significant T2 prolongation (p<0.05 and at least 15 % vs baseline) [1]: Significant T2 prolongations

SMILES: CC[C@H]1OC(=O)[C@H](C)[C@@H](O[C@H]2C[C@@](C)(OC)[C@@H](O)[C@H](C)O2)[C@H](C)[C@@H](O[C@@H]2O[C@H](C)C[C@H](N(C)C)[C@H]2O)[C@](C)(OC)C[C@@H](C)C(=O)[C@H](C)[C@@H](O)[C@]1(C)O [Clarithromycin]
- LD50 (rat; in vivo): 1.270 mg∙kg^-1 (rat, p. o.) 850 mg∙kg^-1 (mouse, i. p.)
- LD50 (mouse): 1.270 mg∙kg^-1 (rat, p. o.) 850 mg∙kg^-1 (mouse, i. p.)
- published IC50 values for hERG and Ito relative to threshold for T2 prolongation or irregularity [1]: at or below the threshold for T2 prolongation or irregularity
- significant T2 prolongation (p<0.05 and at least 15 % vs baseline) [1]: Significant T2 prolongations

SMILES: CNCCCN1c2ccccc2CCc2ccccc21 [Desipramine]
- LD50 (mouse): 740 mg∙kg^-1 (mouse, p. o.)
- significant T2 prolongation (p<0.05 and at least 15 % vs baseline) [1]: Significant T2 prolongations
- irregular beating as the primary effect [1]: induced irregular beating

SMILES: COc1ccc([C@@H]2Sc3ccccc3N(CCN(C)C)C(=O)[C@@H]2OC(C)=O)cc1 [Diltiazem]
- negative inotropic effect [3]: lack of significant negative inotropic effects
- T2-effective concentrations ([3]; Wistar, rat): 100 fold FTPC
- significant T2 prolongation (p<0.05 and at least 15 % vs baseline) ([3]; Wistar, rat): Significant T2 prolongations

SMILES: CC(C)N(CCC(C(N)=O)(c1ccccc1)c1ccccn1)C(C)C (stereo not drawn) [Disopyramide]
- LD50 (rat; in vivo): 333 mg∙kg^-1 (rat, p. o.)
- T2-effective concentrations [1]: 5 fold FTPC
- significant T2 prolongation (p<0.05 and at least 15 % vs baseline) [1]: Significant T2 prolongations

SMILES: CC[C@H]1OC(=O)[C@H](C)[C@@H](O[C@H]2C[C@@](C)(OC)[C@@H](O)[C@H](C)O2)[C@H](C)[C@@H](O[C@@H]2O[C@H](C)C[C@H](N(C)C)[C@H]2O)[C@](C)(O)C[C@@H](C)C(=O)[C@H](C)[C@@H](O)[C@]1(C)O [Erythromycin]
- effect on relaxation time T2 in a previous EHT study [2]: caused concentration-dependent prolongations of relaxation time T2
- reversibility of effects ([4]; after washout): fully reversible after washout
- time course of effects under continuous electrical stimulation and perfusion ([4]; quinidine 100 µM, erythromycin 1 mM): first prolonged T2, reduced force and then induced an autonomous chaotic contraction pattern
- LD50 (rat; in vivo): 4.600 mg∙kg^-1 (rat, p. o.) 2.580 mg∙kg^-1 (mouse, p. o.)
- LD50 (mouse): 4.600 mg∙kg^-1 (rat, p. o.) 2.580 mg∙kg^-1 (mouse, p. o.)
- significant T2 prolongation (p<0.05 and at least 15 % vs baseline) [1]: Significant T2 prolongations
- irregular beating as the primary effect [1]: induced irregular beating

SMILES: O=C(NCC1CCCCN1)c1cc(OCC(F)(F)F)ccc1OCC(F)(F)F (stereo not drawn) [Flecainide]
- LD50 (rat; in vivo): 1.346 mg∙kg^-1 (rat, p. o.)
- significant T2 prolongation (p<0.05 and at least 15 % vs baseline) [1]: Significant T2 prolongations
- ability to mimic the effect of JTV519 on 4AP-induced changes ([1]; flecainide 0.5 µM, data not shown): did not mimic the effect of JTV519

SMILES: O=C(CCCN1CCC(O)(c2ccc(Cl)cc2)CC1)c1ccc(F)cc1 [Haloperidol]
- LD50 (rat; in vivo): 128 mg∙kg^-1 (rat, p. o.) 30 mg∙kg^-1 (mouse, i. p.)
- LD50 (mouse): 128 mg∙kg^-1 (rat, p. o.) 30 mg∙kg^-1 (mouse, i. p.)
- effect on contraction time T1 (group 3) ([1]; 1–100× FTPC): prolongation of contraction time T1

SMILES: CC(=O)N1CCN(c2ccc(OCC3COC(Cn4ccnc4)(c4ccc(Cl)cc4Cl)O3)cc2)CC1 (stereo not drawn) [Ketoconazole]
- LD50 (rat; in vivo): 166 mg∙kg^-1 (rat, p. o.)
- significant T2 prolongation (p<0.05 and at least 15 % vs baseline) ([3]; Wistar, rat): Significant T2 prolongations

SMILES: OC(c1cc(C(F)(F)F)nc2c(C(F)(F)F)cccc12)C1CCCCN1 (stereo not drawn) [Mefloquine]
- LD50 (rat; in vivo): 880 mg∙kg^-1 (rat, p. o.)
- effect on contraction time T1 (group 3) ([1]; 1–100× FTPC): prolongation of contraction time T1

SMILES: O=C1NC(=O)C(c2ccccc2)(c2ccccc2)N1 [Phenytoin]
- LD50 (rat; in vivo): 1.635 mg∙kg^-1 (rat, p. o.) 100 mg∙kg^-1 (mouse, i. p.)
- LD50 (mouse): 1.635 mg∙kg^-1 (rat, p. o.) 100 mg∙kg^-1 (mouse, i. p.)
- EHT-effective concentrations relative to hERG IC50 [1]: relaxation slowing occurred at concentrations below hERG IC50
- concentration at which T2 is prolonged [1]: 1 × FTPC
- significant T2 prolongation (p<0.05 and at least 15 % vs baseline) [1]: Significant T2 prolongations

SMILES: O=c1[nH]c2ccccc2n1C1CCN(CCCC(c2ccc(F)cc2)c2ccc(F)cc2)CC1 [Pimozide]
- LD50 (mouse): 288 mg∙kg^-1 (mouse, p. o.)

SMILES: Cc1nc2n(c(=O)c1CCN1CCC(c3noc4cc(F)ccc34)CC1)CCCC2 [Risperidone]
- LD50 (rat; in vivo): 56,6 mg∙kg^-1 (rat, p. o.)

SMILES: O=C1NCCN1CCN1CCC(c2cn(-c3ccc(F)cc3)c3ccc(Cl)cc23)CC1 [Sertindole]
- LD50 (mouse): 420 mg∙kg^-1 (mouse, i. p.)
- effect on contraction time T1 (group 3) ([1]; 1–100× FTPC): prolongation of contraction time T1

SMILES: CC/C(=C(\c1ccccc1)c1ccc(OCCN(C)C)cc1)c1ccccc1 [Tamoxifen]
- LD50 (rat; p. o.): 4.100 mg∙kg^-1 (rat, p. o.)

SMILES: CSc1ccc2c(c1)N(CCC1CCCCN1C)c1ccccc1S2 (stereo not drawn) [Thioridazine]
- irregular beating as the primary effect [1]: induced irregular beating

SMILES: COc1ccc(CCN(C)CCCC(C#N)(c2ccc(OC)c(OC)c2)C(C)C)cc1OC (stereo not drawn) [Verapamil]
- effect on the T2-prolonging effect of 4AP [1]: no discernible effect
- effect on force (group 3) [3]: decrease in force

SMILES: Cn1c(=O)c2c(ncn2C)n(C)c1=O [caffeine]
- effect on beating rate and twitch ([1]; high concentration of caffeine (5 mM)): reduced beating rate and induced a large and wide twitch

SMILES: C[N+](C)(C)CCOC(N)=O [carbachol]
- effect on frequency of beating in the burst ([1]; carbachol 1 µM added to epinephrine 50 nM): reversed epinephrine effect and induced partial stop
- EHTs that stopped spontaneous beating ([1]; carbachol 1 µM plus epinephrine): 3/7

SMILES: CNC[C@H](O)c1ccc(O)c(O)c1 [epinephrine]
- effect on relaxation time T2 under electrical stimulation ([4]; 2 Hz, 4AP 10 mM, epinephrine 50 nM): shortened T2
- effect on intracellular Ca^2+ transients (duration) ([4]; 4AP 10 mM, epinephrine 50 nM, in absence and presence of 4AP, 2 Hz): shortened it
- change of frequency of beating in the burst ([1]; epinephrine 50 nM): 15–20%
- beating frequency in the bursts ([1]; epinephrine 50 nM, 4.4-4.6 Hz without drug): 5-5.6 Hz

SMILES: CCN(CC)CC(=O)Nc1c(C)cccc1C [lidocaine]
- effect of pure INa blockers on T1 ([1]; data not shown): did not prolong T1
